How the values were obtained:
LS174T tumor xenografts = experiment: Therapy of LS174T tumor xenografts
Method: Therapy of LS174T Tumor Xenografts: Groups of 9 BALB/c nu/nu mice were s.c. injected on the right flank with 5×10^6 LS174T cells on day 1. […] 48 and 50 h later mice were i.v. injected with 2 sequential doses of 300 and 200 μg AGP3. […] Therapy was repeated starting on days 16, 26, and 41. All mice received 2-4 rounds of therapy. Tumor volumes (length×width×height×0.5) were measured twice a week and mice weight was followed as an estimate of treatment toxicity. […] Groups of 8 BALB/c nu/nu mice bearing larger 200-250 mm^3 tumors were also treated as above with 2 rounds of therapy starting on days 11 and 23.
Therapy was repeated starting on days 16, 26 and 41. […] Bars indicate the standard error of the mean. […] Soluble IgM immune complexes are primarily removed from the circulation and catabolized by the mononuclear phagocyte system in the liver, spleen and lungs by receptor-mediated binding of high mannose oligosaccharides exposed upon conformational changes in IgM induced by antigen binding (Day et al., 1980).

LS174T cells = experiment: Drug sensitivity of LS174T cells ([3H]-leucine incorporation); conditions: BHAMG plus 1 μg/well βG, 24 h
Method: Drug sensitivity of LS174T cells: LS174T cells were plated overnight in 96 well microtiter plates at 40,000 cells per well. […] Cells were subsequently washed once with sterile PBS, incubated until hour 48 in fresh leucine-free medium and then pulsed for 12 h with [^3H]-leucine (1 μCi/well) in fresh medium and harvested with a Filter-mate (Packard). Incorporated radioactivity was determined on a Top-Count scintillation counter (Packard). Results are expressed as percentage inhibition of [^3H]-leucine incorporation compared with untreated cells (control) by the following formula: [formula]
The cellular protein synthesis rate of drug-treated cells is compared to untreated control cells. Bars indicate the standard error of triplicate determinations.

[1] = Toxicity of clearance and BHAMG prodrug administration; assay type: in vivo, BALB/c mice; conditions: AGP3 and 15 mg/kg BHAMG, no βG-sPEG
Method: Toxicity of Clearance: The numbers of WBC, RBC, and PLT in groups of 6 BALB/c mice were measured as described (Chen et al., 1997) 1 day before i.v. injection of 50 μg of βG-PEG or PBS. […] On day 8, the numbers of WBC, RBC, and PLT in […] samples were determined. On days 3 and 10, the spleen, liver and kidney were removed from one mouse in each group and fixed in 10% formalin. Ethanol dehydrated samples were embedded in paraffin and cut into 3 μm sections. Sections were then dewaxed with xylene, stained with hematoxylin/eosin, and dehydrated before observation under a light microscope. The weight of mice was followed for 18 days.
One concern of employing IgM to clear proteins is that the immune complexes could be deposited in organs and cause tissue damage. In addition, deposition of βG-PEG on the surface of cells could result in prodrug activation and tissue toxicity. […] Mice were injected with PBS (A-C) or βG-sPEG (D-F) on day 1. […] Tissue sections of liver (A, D), kidney (B, E), and spleen (C, F) recovered 10 days later were stained with hematoxylin and eosin. […] Similarly, no tissue damage was observed 3 days after prodrug administration (results not shown).
Groups of 4 mice were i.v. injected at time zero with PBS (control) or βG-sPEG. […] Six hours later, all mice were i.v. injected with BHAMG. […]

O=C(O)[C@H]1O[C@@H](Oc2ccc(N(CCCl)CCCl)cc2)[C@H](O)[C@@H](O)[C@@H]1O [BHAMG]
Weight loss % (LS174T tumor xenografts; Round of therapy 1): 1.7%
Weight loss % (LS174T tumor xenografts; Round of therapy 2): 4.0%
Weight loss % (LS174T tumor xenografts; Round of therapy 3): 1.7%
cytotoxic effect with simultaneous addition of βG (LS174T cells): cytotoxic effect equal to pHAM alone
weight of mice, control group [1]: only a small transient decrease
